Measured values as given in patent US20240294535A1, “IMIDAZOTRIAZINE THIOBENZAMIDE DERIVATIVE, AND PREPARATION METHOD AND APPLICATION THEREOF” (Yunbaiyao Zhengwu Science and Technology (Shanghai) Co., …, priority 2023, published 2024).
Where two headings read alike, the source gives them in different places.

Columns and labels:
c-MET = c-MET (Homo sapiens (Human), UniProt P08581); experiment: c-MET kinase inhibitory activity (ELISA, poly(Glu,Tyr) substrate); format: biochemical; settings: read-out: c-MET kinase inhibitory enzymatic activity IC50
Chain of c-MET (P08581 25-1390): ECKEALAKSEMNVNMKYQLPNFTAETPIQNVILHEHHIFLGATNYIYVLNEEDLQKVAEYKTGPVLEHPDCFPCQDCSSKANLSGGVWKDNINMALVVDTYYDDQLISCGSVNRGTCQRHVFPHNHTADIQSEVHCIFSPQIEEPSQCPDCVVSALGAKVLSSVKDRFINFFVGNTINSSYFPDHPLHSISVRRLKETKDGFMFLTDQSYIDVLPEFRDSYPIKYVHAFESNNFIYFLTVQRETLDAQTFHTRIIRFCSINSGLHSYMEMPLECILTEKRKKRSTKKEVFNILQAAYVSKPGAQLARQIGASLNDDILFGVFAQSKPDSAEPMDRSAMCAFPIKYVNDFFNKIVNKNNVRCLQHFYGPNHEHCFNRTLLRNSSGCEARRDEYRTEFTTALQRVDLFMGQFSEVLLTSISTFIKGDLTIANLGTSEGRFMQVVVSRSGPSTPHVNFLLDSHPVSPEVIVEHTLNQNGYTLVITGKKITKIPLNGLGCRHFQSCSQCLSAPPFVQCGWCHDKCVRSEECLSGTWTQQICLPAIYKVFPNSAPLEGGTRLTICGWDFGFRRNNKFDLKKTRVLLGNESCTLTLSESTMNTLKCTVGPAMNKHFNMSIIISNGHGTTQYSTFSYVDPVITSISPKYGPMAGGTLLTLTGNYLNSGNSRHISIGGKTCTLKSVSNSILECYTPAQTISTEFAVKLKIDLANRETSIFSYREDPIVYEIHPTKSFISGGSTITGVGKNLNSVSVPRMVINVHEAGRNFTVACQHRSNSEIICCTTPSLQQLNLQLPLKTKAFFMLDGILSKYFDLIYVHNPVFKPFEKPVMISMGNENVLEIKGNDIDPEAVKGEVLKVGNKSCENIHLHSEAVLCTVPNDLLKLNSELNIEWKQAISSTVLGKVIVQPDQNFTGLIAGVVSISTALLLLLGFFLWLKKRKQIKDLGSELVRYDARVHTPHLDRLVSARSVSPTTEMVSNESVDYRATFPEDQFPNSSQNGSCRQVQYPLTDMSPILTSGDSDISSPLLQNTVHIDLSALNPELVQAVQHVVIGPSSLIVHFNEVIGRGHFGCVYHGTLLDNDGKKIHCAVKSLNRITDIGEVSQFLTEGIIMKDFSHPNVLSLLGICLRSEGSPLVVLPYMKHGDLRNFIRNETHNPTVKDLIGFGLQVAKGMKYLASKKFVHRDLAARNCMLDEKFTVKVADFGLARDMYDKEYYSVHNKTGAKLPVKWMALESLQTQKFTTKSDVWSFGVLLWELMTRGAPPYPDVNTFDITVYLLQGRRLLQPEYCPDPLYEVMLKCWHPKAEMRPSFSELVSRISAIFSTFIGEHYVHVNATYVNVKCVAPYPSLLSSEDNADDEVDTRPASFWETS

MKN-45 cells = experiment: Anti-proliferation activity, CTG, MKN-45 cells; format: cell-based
Experimental: (§1) Experimental objective: To evaluate the anti-proliferation activities of the compounds against MKN-45 cells, EBC-1 cells, Hs746T cells and Vero cells.
(§2) Experimental methods: Tumor cell lines were cultured and periodically passaged, and cells in logarithmic growth phase were taken for plate spreading. The cells were stained with Trypan blue, counted and adjusted to an appropriate density. 50 μL of cell suspension was added into each well of a culture plate, and 50 μL of nutrient solution without cells was added into a blank control well. The culture plate was precultured for 24 h in an incubator under the condition of 37° C., 5% CO2 and 100% relative humidity.
(§3) The DMSO stock solutions of the compounds 1-28 and Capmatinib were prepared, and diluted with Tecan D300e. Each compound was diluted to 7 concentration levels: 0.50 μM, 0.125 μM, 0.031 μM, 0.0078 μM, 0.0020 μM, 0.00049 μM, 0.00012 μM. The experiment was carried out in triplicate.
(§4) 50 μL of the solution was added into each designated well, and the culture plate was incubated for 48 h. 50 μL of CTG working solution was added to each well. The culture plate was wrapped with aluminum foil to avoid light and shaken in the shaker for 2 min to induce cell lysis. The culture plate was placed at room temperature for 10 min to stabilize light-emitting signal which was detected with a 2014 EnVision plate reader. Experimental data was processed by GraphPad Prism 7 to calculate IC50.

EBC-1 cells = experiment: Anti-proliferation activity, CTG, EBC-1 cells; format: cell-based, human
Experimental: as §1, §2, §3, §4

Hs746T cells = experiment: Anti-proliferation activity, CTG, Hs746T cells; format: cell-based
Experimental: as §1, §2, §3, §4

Vero cells = experiment: Anti-proliferation activity, CTG, Vero cells; format: cell-based
Experimental: as §1, §2, §3, §4

in vivo = settings: both, Kunming, mouse, po
SPF Kunming mice = settings: mouse, in vivo, po
[1] = system: human EBC-1 cell subcutaneous xenograft model; experiment: In vivo anti-tumor assessment in EBC-1 cell xenograft tumor mouse model; parameters: species or system mice; settings: 10 mg/kg P.O. QD × 15 days; for inhibition of growth of the tumor in mice (tumor volume change): end of the experiment, FIG. 2
Experimental: Experimental objective: To investigate in vivo efficacy of representative compounds on human lung squamous carcinoma cell (human EBC-1 cell) subcutaneous xenograft model.
Experimental methods: The EBC-1 cell xenograft tumor mouse model was used, according to the diameters of tumor, the tumor volume (TV), relative tumor volume (RTV), relative tumor proliferation rate (T/C (%)) and tumor growth inhibition value (TGI (%)) were calculated.
TGI (%) or T/C (%) of the compounds was evaluated. TGI (%) reflects a tumor growth inhibitory rate. TGI (%) was calculated as follows: TGI (%)=[1−(average tumor volume at the end of administration in a treatment group-average tumor volume at the beginning of administration in the treatment group)/(average tumor volume at the end in a solvent control group-average tumor volume at the beginning in the solvent control group)]×100%.
T/C (%) was calculated as follows: T/C (%)=TRTV/CRTV×100%; where TRTV is treatment RTV, and CRTV is negative control RTV. According to the measurement results of the tumor, RTV was calculated, and the calculating formula for RTV is as follows: RTV=Vt/V0; where V0 is the average tumor volume measured on the day of first administration; and Vt is the average tumor volume measured on a specified day. TRTV and CRTV were measured on the same day.

[2] = Homo sapiens, MKN-45 cells, 48 h, CTG
[3] = Homo sapiens, EBC-1 cells, 48 h, CTG
[4] = Homo sapiens, Hs746T cells, 48 h, CTG
[5] = Chlorocebus sabaeus, Vero cells, 48 h, CTG

| Structure (SMILES) | IC50 (c-MET; ATP 4 μM, 37° C. 1 h) [pM] | IC50 (MKN-45 cells; [2]) [nM] | IC50 (EBC-1 cells; [3]) [nM] | IC50 (Hs746T cells; [4]) [nM] | IC50 (Vero cells; [5]) [nM] | LD50 (in vivo) [mg/kg] | IC50 (MKN-45 cells; MKN-45 cells, 48 h, CTG) [nM] | IC50 (EBC-1 cells; EBC-1 cells, 48 h, CTG) [nM] | IC50 (Hs746T cells; Hs746T cells, 48 h, CTG) [nM] | IC50 (Vero cells; Vero cells, 48 h, CTG) [nM] | LD50 (SPF Kunming mice) [mg/kg] | further results |
| --- | --- | --- | --- | --- | --- | --- | --- | --- | --- | --- | --- | --- |
| CNC(=S)c1ccc(-c2cnc3ncc(Cc4ccc5scnc5c4)n3n2)cc1F [Compound 19] | 1.9 | 1.9 | 1.4 | 1.4 | 251 | 297 |  |  |  |  |  |  |
| CNC(=S)c1ccc(-c2cnc3ncc(Cc4ccc5ncccc5c4)n3n2)cc1O [Compound 11] | 2.5 | 1.4 | 1.8 | 1.4 | 231 | 296 |  |  |  |  |  |  |
| CNC(=S)c1ccc(-c2cnc3ncc(C(F)(F)c4ccc5ncccc5c4)n3n2)cc1F [Compound 28] | 1.8 |  |  |  |  |  | 1.5 | 1.2 | 1.4 | 237 | 294 |  |
| CNC(=S)c1ccc(-c2cnc3ncc(Cc4ccc5ncccc5c4)n3n2)cc1F [Compound 1] | 2.2 |  |  |  |  |  | 1.5 | 1.4 | 1.6 | 129 | 293 | T/C(%) [1]: 15.09%; TGI(%) [1]: 103.24%; Tumor Volume (Day 15) [1]: 136 ± 17 mm^3; inhibition of growth of the tumor in mice (tumor volume change) [1]: better inhibitory effects |
| CNC(=S)c1ccc(-c2cnc3ncc(C(OC)c4ccc5ncccc5c4)n3n2)cc1F (stereo not shown) [Compound 23] | 1.5 |  |  |  |  |  | 1.7 | 1.1 | 1.4 | 157 | 320 |  |
| CNC(=S)c1ccc(-c2cnc3ncc(Cc4ccc5c(c4)OCO5)n3n2)cc1F [Compound 20] | 2.1 | 1.1 | 1.8 | 1.2 | 164 | 305 |  |  |  |  |  |  |
| CNC(=S)c1ccc(-c2cnc3ncc(Cc4ccc5ncccc5c4)n3n2)c(F)c1 [Compound 5] | 2.1 |  |  |  |  |  | 1.6 | 1.2 | 1.6 | 138 | 298 |  |
| CNC(=S)c1ccc(-c2cnc3ncc(Cc4cc(F)c5ncccc5c4F)n3n2)cc1F [Compound 14] | 2.6 | 1.5 | 1.2 | 1.1 | 226 | 291 |  |  |  |  |  |  |
| CC(C)NC(=S)c1ccc(-c2cnc3ncc(Cc4ccc5ncccc5c4)n3n2)cc1F [Compound 3] | 1.6 | 1.5 | 1.8 | 1.5 | 101 | 291 |  |  |  |  |  |  |
| CNC(=S)c1ccc(-c2cnc3ncc(/C(=N/OC)c4ccc5ncccc5c4)n3n2)cc1F [Compound 27] | 1.9 |  |  |  |  |  | 1.3 | 1.5 | 1.8 | 163 | 310 |  |
| CNC(=S)c1ccc(-c2cnc3ncc(Cc4cc(C(F)(F)F)c5ncccc5c4)n3n2)cc1F [Compound 16] | 1.5 |  |  |  |  |  | 1.3 | 1.3 | 1.7 | 156 | 296 | T/C(%) [1]: 17.98%; TGI(%) [1]: 99.73%; Tumor Volume (Day 15) [1]: 162 ± 23 mm^3; inhibition of growth of the tumor in mice (tumor volume change) [1]: better inhibitory effects |
| CNC(=S)c1cc(F)c(-c2cnc3ncc(Cc4ccc5ncccc5c4)n3n2)cc1F [Compound 6] | 1.5 |  |  |  |  |  | 1.9 | 1.9 | 1.9 | 116 | 292 |  |
| CNC(=S)c1ccc(-c2cnc3ncc(Cc4ccc5ncccc5c4)n3n2)cc1N [Compound 9] | 1.7 | 1.8 | 1.6 | 1.4 | 252 | 297 |  |  |  |  |  |  |
| Fc1cc(-c2cnc3ncc(Cc4ccc5ncccc5c4)n3n2)ccc1C(=S)NC1CC1 [Compound 4] | 2.5 | 1.9 | 1.8 | 1.4 | 216 | 320 |  |  |  |  |  |  |
| CNC(=S)c1ccc(-c2cnc3ncc(C(c4ccc5ncccc5c4)N(C)C)n3n2)cc1F (stereo not shown) [Compound 25] |  |  |  |  |  |  |  |  |  |  | 287 | IC50 (c-MET): 2.3 pM; IC50 (MKN-45 cells): 1.3 nM; IC50 (EBC-1 cells): 1 nM; IC50 (Hs746T cells): 1.3 nM; IC50 (Vero cells): 192 nM |
| CNC(=S)c1ccc(-c2cnc3ncc(Cc4ccc5occc5c4)n3n2)cc1F [Compound 18] | 1.3 | 1.5 | 1.1 | 1.5 | 148 | 302 |  |  |  |  |  |  |
| CNC(=S)c1ccc(-c2cnc3ncc(C(N)c4ccc5ncccc5c4)n3n2)cc1F (stereo not shown) [Compound 26] | 1.7 |  |  |  |  |  | 1.1 | 1.8 | 1.1 | 282 | 295 |  |
| CNC(=S)c1ccc(-c2cnc3ncc(Cc4ccc5ncccc5c4)n3n2)cc1OC [Compound 12] | 1.9 | 1.1 | 1.7 | 1.1 | 236 | 286 |  |  |  |  |  |  |
| CNC(=S)c1ccc(-c2cnc3ncc(Cc4ccc5ncccc5c4)n3n2)c(F)c1F [Compound 7] | 2.2 |  |  |  |  |  | 1.3 | 1.2 | 1.8 | 127 | 305 |  |
| CNC(=S)c1ccc(-c2cnc3ncc(Cc4ccc5ncccc5c4)n3n2)cc1Cl [Compound 8] | 1.9 |  |  |  |  |  | 1.7 | 1.8 | 1.8 | 142 | 321 |  |
| CNC(=S)c1ccc(-c2cnc3ncc(Cc4cc(Cl)c5ncccc5c4)n3n2)cc1F [Compound 15] | 1.3 |  |  |  |  |  | 1.6 | 1.5 | 1.3 | 238 | 305 |  |
| CNC(=S)c1ccc(-c2cnc3ncc(Cc4ccc5ncccc5c4)n3n2)cc1NC [Compound 10] | 1.6 | 1.8 | 1.9 | 1.5 | 164 | 292 |  |  |  |  |  |  |
| CN(C)C(=S)c1ccc(-c2cnc3ncc(Cc4ccc5ncccc5c4)n3n2)cc1F [Compound 2] | 1.9 | 1.1 | 1.2 | 1.4 | 126 | 284 |  |  |  |  |  |  |
| CNC(=S)c1ccc(-c2cnc3ncc(Cc4cc(F)c5ncccc5c4)n3n2)cc1F [Compound 13] | 1.7 |  |  |  |  |  | 1.2 | 1.7 | 1.4 | 152 | 314 |  |
| CNC(=S)c1ccc(-c2cnc3ncc(C(O)c4ccc5ncccc5c4)n3n2)cc1F (stereo not shown) [Compound 21] | 1.4 |  |  |  |  |  | 1.2 | 1.3 | 1.1 | 132 | 298 |  |
| CNC(=S)c1ccc(-c2cnc3ncc(C(=O)c4ccc5ncccc5c4)n3n2)cc1F [Compound 22] | 1.6 |  |  |  |  |  | 1.5 | 1.7 | 1.8 | 231 |  |  |
